Here are results for nine compounds from PubChem BioAssay AID1745844 (Carcinogenic Potency Database (CPDB), 2022).

“And” between values parts separate entries of the source, which are not always exact repeats. Equal entries are not always repeated. The source made the active and inactive calls. No rule for the calls is given here.

This series deals with rodent lifetime carcinogenesis bioassay, tumor incidence TD50. Put plainly: chronic cancer bioassays in animals – CPDB, compiled studies (AID 1745844).
Where [1] appears, read: mouse, strain B6C3F1, females, in feed, site: liver, lesion: hepatocellular adenoma, dosed 104 weeks, study length 104 weeks.
Setting [2] is: mouse, strain B6C3F1, males, in feed, site: liver, lesion: hepatocellular adenoma, dosed 104 weeks, study length 104 weeks.
[3] abbreviates: mouse, strain B6C3F1, males, in feed, site: liver, lesion: hepatocellular carcinoma, dosed 104 weeks, study length 104 weeks.

A word on the TD50: it is the dose at which the toxic effect under study appears in half of the subjects. As for `CC(C)(CCCOc1ccc(OCCCC(C)(C)C(=O)O)c(-c2ccccc2)c1)C(=O)O`, the TD50 is 90.6 mg/kg/day under setting [1]; 402 mg/kg/day (mouse, strain B6C3F1, females, in feed, site: liver, lesion: hepatocellular carcinoma, dosed 104 weeks, study length 104 weeks); 72.3 mg/kg/day (mouse, strain B6C3F1, females, in feed, site: liver, lesion: several types, types named in the paper, dosed 104 weeks, study length 104 weeks); 107 mg/kg/day under setting [2]; 167 mg/kg/day under setting [3]; 45 mg/kg/day (mouse, strain B6C3F1, males, in feed, site: liver, lesion: several types, types named in the paper, dosed 104 weeks, study length 104 weeks).
On to `Cc1cc(C)nc(-c2ccc([N+](=O)[O-])o2)n1`, for which, under “rat, strain Sprague-Dawley, females, in feed, site: forestomach, lesion: squamous-cell carcinoma, dosed 42 weeks, study length 59 weeks”, the carcinogen call was “positive”. Also, the TD50 reads like this: (rat, strain Sprague-Dawley, females, in feed, site: intestine, lesion: hemangioendothelial sarcoma, dosed 42 weeks, study length 59 weeks) 3.43 mg/kg/day; (rat, strain Sprague-Dawley, females, in feed, site: intestine, lesion: sarcoma, dosed 42 weeks, study length 59 weeks) 2.61 mg/kg/day; (rat, strain Sprague-Dawley, females, in feed, site: kidney, lesion: transitional-cell carcinoma, dosed 42 weeks, study length 59 weeks) 45.5 mg/kg/day; (rat, strain Sprague-Dawley, females, in feed, site: mammary gland, lesion: adenocarcinoma, dosed 42 weeks, study length 59 weeks) 6.45 mg/kg/day.
As for `O=C(O)c1ccccc1`, the carcinogen call by setting is: (mouse, strain Swiss albino, females, in drinking water, site: liver, lesion: one or several types, types not named, dosed 134 weeks, study length 134 weeks) “negative (inactive)”; (mouse, strain Swiss albino, females, in drinking water, site: lung, lesion: one or several types, types not named, dosed 134 weeks, study length 134 weeks) “negative (inactive)”; (mouse, strain Swiss albino, males, in drinking water, site: lung, lesion: one or several types, types not named, dosed 113 weeks, study length 113 weeks) “negative (inactive)”; (rat, strain Fischer 344, males, in feed, site: any site (literature study), lesion: malignant tumor, dosed 104 weeks, study length 108 weeks) “negative (inactive)”; (rat, strain Fischer 344, males, in feed, site: any site (literature study), lesion: several types, types named in the paper, dosed 104 weeks, study length 108 weeks) “negative (inactive)”. Also, the TD50 reads like this: (mouse, strain Swiss albino, males, in drinking water, site: liver, lesion: hepatoma, dosed 113 weeks, study length 113 weeks) 133000 mg/kg/day (inactive); (rat, strain Fischer 344, females, in feed, site: any site (literature study), lesion: malignant tumor, dosed 104 weeks, study length 108 weeks) 104000 mg/kg/day (inactive); (rat, strain Fischer 344, females, in feed, site: any site (literature study), lesion: several types, types named in the paper, dosed 104 weeks, study length 108 weeks) 24900 mg/kg/day (inactive).
On to `CC(=O)NNC(C)=O`, for which the carcinogen call by setting is: (mouse, strain Swiss, females, by gavage, site: lung, lesion: several types, types named in the paper, dosed 34 weeks, study length 95 weeks) “negative (inactive)”; (mouse, strain Swiss, females, by gavage, site: lung, lesion: several types, types named in the paper, dosed 95 weeks, study length 95 weeks) “negative (inactive)”. The TD50 was 144 mg/kg/day (inactive) (mouse, strain Swiss, males, by gavage, site: lung, lesion: several types, types named in the paper, dosed 34 weeks, study length 95 weeks) and 411 mg/kg/day (inactive) (mouse, strain Swiss, males, by gavage, site: lung, lesion: several types, types named in the paper, dosed 95 weeks, study length 95 weeks).
Consider `CC(/C=C/C=C(\C)C(=O)O[C@@H]1O[C@H](CO[C@@H]2O[C@H](CO)[C@@H](O)[C@H](O)[C@H]2O)[C@@H](O)[C@H](O)[C@H]1O)=C\C=C\C=C(C)\C=C\C=C(/C)C(=O)O[C@@H]1O[C@H](CO[C@@H]2O[C@H](CO)[C@@H](O)[C@H](O)[C@H]2O)[C@@H](O)[C@H](O)[C@H]1O`, for which the carcinogen call was “negative (inactive)” (mouse, strain C57BL/6N, females, in drinking water, site: liver, lesion: hepatoma, dosed 95 weeks, study length 95 weeks); “negative (inactive)” (mouse, strain C57BL/6N, females, in drinking water, site: lung, lesion: one or several types, types not named, dosed 95 weeks, study length 95 weeks); “negative (inactive)” (mouse, strain C57BL/6N, males, in drinking water, site: liver, lesion: hepatoma, dosed 95 weeks, study length 95 weeks); “negative (inactive)” (mouse, strain C57BL/6N, males, in drinking water, site: lung, lesion: one or several types, types not named, dosed 95 weeks, study length 95 weeks).
In the case of `COc1cccc2c1cc([N+](=O)[O-])c1c(C(=O)O)cc3c(c12)OCO3`, the TD50 is 0.0141 mg/kg/day (rat, strain Wistar, females, by gavage, site: forestomach, lesion: several types, types named in the paper, dosed 52 weeks, study length 69 weeks); 0.101 mg/kg/day (rat, strain Wistar, females, by gavage, site: forestomach, lesion: squamous-cell carcinoma, dosed 52 weeks, study length 69 weeks); 0.0247 mg/kg/day (rat, strain Wistar, females, by gavage, site: forestomach, lesion: squamous-cell papilloma, dosed 52 weeks, study length 69 weeks). Where the note is “rat, strain Wistar, males, by gavage, site: forestomach, lesion: squamous-cell carcinoma, dosed 52 weeks, study length 69 weeks”, the carcinogen call is “positive”.
Consider `CCC=C(CC)[N+](=O)[O-]`, for which the TD50 is 0.363 mg/kg/day and 0.768 mg/kg/day (mouse, strain Swiss Webster, females, inhaled, site: lung, lesion: adenocarcinoma, dosed 62 weeks, study length 62 weeks); 0.687 mg/kg/day (mouse, strain Swiss Webster, females, inhaled, site: lung, lesion: several types, types named in the paper, dosed 62 weeks, study length 62 weeks); 0.346 mg/kg/day (mouse, strain Swiss, both sexes, inhaled, site: lung, lesion: adenocarcinoma, dosed 62 weeks, study length 62 weeks); 8.66 mg/kg/day (rat, strain CFN, both sexes, inhaled, site: lung, lesion: undifferentiated carcinoma, dosed 158 weeks, study length 158 weeks).
As for `Nc1nc(N)c2nc(-c3ccccc3)c(N)nc2n1`, the TD50 was 132 mg/kg/day and 64.4 mg/kg/day (mouse, strain B6C3F1, females, in feed, site: any site (literature study), lesion: several types, types named in the paper, dosed 104 weeks, study length 104 weeks); 51.3 mg/kg/day and 45.3 mg/kg/day (mouse, strain B6C3F1, females, in feed, site: liver, lesion: hepatocellular adenoma + hepatoblastoma + hepatocellular carcinoma, dosed 104 weeks, study length 104 weeks); 51.3 mg/kg/day and 45.3 mg/kg/day (mouse, strain B6C3F1, females, in feed, site: liver, lesion: hepatocellular adenoma + hepatocellular carcinoma, dosed 104 weeks, study length 104 weeks); 46 mg/kg/day and 45.7 mg/kg/day under setting [1]; 235 mg/kg/day (mouse, strain B6C3F1, males, in feed, site: Harderian gland, lesion: adenoma, dosed 104 weeks, study length 104 weeks); 205 mg/kg/day and 86.7 mg/kg/day (mouse, strain B6C3F1, males, in feed, site: any site (literature study), lesion: several types, types named in the paper, dosed 104 weeks, study length 104 weeks). The TD50 reads like this: (mouse, strain B6C3F1, males, in feed, site: liver, lesion: hepatocellular adenoma + hepatoblastoma + hepatocellular carcinoma, dosed 104 weeks, study length 104 weeks) 169 mg/kg/day and 61.2 mg/kg/day; (mouse, strain B6C3F1, males, in feed, site: liver, lesion: hepatocellular adenoma + hepatocellular carcinoma, dosed 104 weeks, study length 104 weeks) 162 mg/kg/day and 61.2 mg/kg/day; under setting [2], 54.8 mg/kg/day; under setting [3], 227 mg/kg/day; (mouse, strain B6C3F1, males, in feed, site: lung, lesion: alveolar/bronchiolar adenoma + alveolar/bronchiolar carcinoma, dosed 104 weeks, study length 104 weeks) 233 mg/kg/day and 265 mg/kg/day; (rat, strain Fischer 344, females, in feed, site: liver, lesion: hepatocellular adenoma + hepatoblastoma + hepatocellular carcinoma, dosed 104 weeks, study length 104 weeks) 520 mg/kg/day. Moreover, the TD50 is, setting by setting: (rat, strain Fischer 344, males, in feed, site: liver, lesion: hepatocellular adenoma + hepatoblastoma + hepatocellular carcinoma, dosed 104 weeks, study length 104 weeks) 11.8 mg/kg/day; (rat, strain Fischer 344, males, in feed, site: liver, lesion: hepatocellular adenoma, dosed 104 weeks, study length 104 weeks) 11.8 mg/kg/day. Also, the carcinogen call (rat, strain Fischer 344, females, in feed, site: any site (literature study), lesion: several types, types named in the paper, dosed 104 weeks, study length 104 weeks) was “negative (inactive)”.
For the compound `COc1cc(CNC(=O)CCCC/C=C/C(C)C)ccc1O`, the carcinogen call was “negative (inactive)” (mouse, strain B6C3F1, females, in feed, site: any site (literature study), lesion: several types, types named in the paper, dosed 79 weeks, study length 83 weeks); “negative (inactive)” (mouse, strain B6C3F1, females, in feed, site: liver, lesion: several types, types named in the paper, dosed 79 weeks, study length 83 weeks); “negative (inactive)” (mouse, strain B6C3F1, females, in feed, site: lung, lesion: adenoma, dosed 79 weeks, study length 83 weeks); “negative (inactive)” (mouse, strain B6C3F1, males, in feed, site: liver, lesion: several types, types named in the paper, dosed 79 weeks, study length 83 weeks); “positive” (mouse, strain Swiss albino, males, in feed, site: cecum, lesion: polypoid adenoma, dosed 124 weeks, study length 124 weeks). For the same compound, the TD50 is 2040 mg/kg/day (inactive) (mouse, strain B6C3F1, males, in feed, site: any site (literature study), lesion: several types, types named in the paper, dosed 79 weeks, study length 83 weeks); 16100 mg/kg/day (inactive) (mouse, strain B6C3F1, males, in feed, site: lung, lesion: adenoma, dosed 79 weeks, study length 83 weeks); 167 mg/kg/day (mouse, strain Swiss albino, females, in feed, site: cecum, lesion: polypoid adenoma, dosed 152 weeks, study length 152 weeks); 2310 mg/kg/day (mouse, strain Swiss albino, females, in feed, site: duodenum, lesion: adenocarcinoma, dosed 152 weeks, study length 152 weeks); 225 mg/kg/day (mouse, strain Swiss albino, females, in feed, site: lung, lesion: adenoma, dosed 152 weeks, study length 152 weeks); 1080 mg/kg/day (mouse, strain Swiss albino, females, in feed, site: lung, lesion: several types, types named in the paper, dosed 152 weeks, study length 152 weeks). Where the note is “mouse, strain Swiss albino, males, in feed, site: duodenum, lesion: several types, types named in the paper, dosed 124 weeks, study length 124 weeks”, this compound gave a TD50 of 404 mg/kg/day.
